We go through 24 molecules from patent publication US20230183237A1, “COMPETITIVE AND NONCOMPETITIVE INHIBITORS OF THE MUSCARINIC ACETYLCHOLINE RECEPTOR M5” (Vanderbilt University, priority 2020, published 2023).

The assay has as its target T1, hM5 (Homo sapiens, UniProt P08912).
T1 construct: expressed in transfected cells
T1 sequence (P08912 1-532): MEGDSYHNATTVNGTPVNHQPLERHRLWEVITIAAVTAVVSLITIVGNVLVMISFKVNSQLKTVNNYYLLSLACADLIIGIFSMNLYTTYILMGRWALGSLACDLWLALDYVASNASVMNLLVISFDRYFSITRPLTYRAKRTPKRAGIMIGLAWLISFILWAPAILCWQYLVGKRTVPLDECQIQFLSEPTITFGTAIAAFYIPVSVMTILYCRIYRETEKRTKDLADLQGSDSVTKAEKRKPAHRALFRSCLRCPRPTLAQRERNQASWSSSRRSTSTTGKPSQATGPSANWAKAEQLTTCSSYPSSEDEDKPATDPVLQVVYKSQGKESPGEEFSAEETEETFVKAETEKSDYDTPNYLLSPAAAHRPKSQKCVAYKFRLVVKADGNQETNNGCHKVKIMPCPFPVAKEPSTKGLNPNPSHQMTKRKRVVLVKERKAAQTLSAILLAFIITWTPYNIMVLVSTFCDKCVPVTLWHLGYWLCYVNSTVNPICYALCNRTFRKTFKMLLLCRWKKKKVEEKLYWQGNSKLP
Put plainly: Calcium mobilization concentration-response (IC50 vs EC80 acetylcholine), CHO hM5. Format: cell-based. In a few lines:
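IC50 values derive from percent maximal acetylcholine response after an EC80 ACh addition, measured as kinetic calcium fluorescence (static ratio, max−min). Test compounds were added 140 s before agonist. Cells: stable hM5-CHO in HEPES-buffered HBSS with 2.5 mM probenecid, pH 7.4; ≥3 independent triplicate determinations.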

The mark [1] stands for this setting: CELL LINE hM5, calcium mobilization, EC80 acetylcholine addition, read-out: IC50.

Structures are written as SMILES. Like-named read-outs stand apart in the source and are kept apart here.

In the case of `Cc1cc2ncnn2nc1C1CCN(S(=O)(=O)c2cnn(C)c2C(F)(F)F)CC1` [Compound 177, 7-methyl-6-(1-((1-methyl-5-(trifluoromethyl)-1H-pyrazol-4-yl)sulfonyl)piperidin-4-yl)-[1,2,4]triazolo[1,5-b]pyridazine], the 50% inhibitory concentration (IC50) under setting [1] was above 10 µM. `Cc1cc2ncnn2nc1C1CCN(S(=O)(=O)c2c(C)nn(C)c2Cl)CC1` [Compound 179, 6-(1-((5-chloro-1,3-dimethyl-1H-pyrazol-4-yl)sulfonyl)piperidin-4-yl)-7-methyl-[1,2,4]triazolo[1,5-b]pyridazine]: the 50% inhibitory concentration (IC50) under setting [1] came to 0.066 µM. Still for that read-out and setting: in the case of `Cc1cc2ncnn2nc1C1CCN(S(=O)(=O)c2c(C)n[nH]c2C)CC1` [Compound 180, 6-(1-((3,5-dimethyl-1H-pyrazol-4-yl)sulfonyl)piperidin-4-yl)-7-methyl-[1,2,4]triazolo[1,5-b]pyridazine] it was above 10 µM; in that of `Cc1cc2ncnn2nc1C1CCN(S(=O)(=O)c2cc3c(cc2F)OCC3)CC1` [Compound 181, 6-(1-((6-fluoro-2,3-dihydrobenzofuran-5-yl)sulfonyl)piperidin-4-yl)-7-methyl-[1,2,4]triazolo[1,5-b]pyridazine], above 10 µM; in that of `Cc1cc2ncnn2nc1C1CCN(S(=O)(=O)c2cn(C)nc2C)CC1` [Compound 182, 6-(1-((1,3-dimethyl-1H-pyrazol-4-yl)sulfonyl)piperidin-4-yl)-7-methyl-[1,2,4]triazolo[1,5-b]pyridazine], above 10 µM. `Cc1cc2c(cc1S(=O)(=O)N1CCC(c3nn4ncnc4cc3C)CC1)OCO2` [Compound 183, 7-methyl-6-(1-((6-methylbenzo[d][1,3]dioxol-5-yl)sulfonyl)piperidin-4-yl)-[1,2,4]triazolo[1,5-b]pyridazine]: the IC50 under setting [1] is above 10 µM. For the molecule `Cc1cc2ncnn2nc1C1CCN(S(=O)(=O)c2ccc3c(c2)OCCO3)CC1` [Compound 184, 6-(1-((2,3-dihydrobenzo[b][1,4]dioxin-6-yl)sulfonyl)piperidin-4-yl)-7-methyl-[1,2,4]triazolo[1,5-b]pyridazine], the IC50 under setting [1] was above 10 µM.

As for `Cc1cc2ncnn2nc1C1CCN(S(=O)(=O)c2ccc3ncsc3c2)CC1` [Compound 185, 6-((4-(7-methyl-[1,2,4]triazolo[1,5-b]pyridazin-6-yl)piperidin-1-yl)sulfonyl)benzo[d]thiazole], the IC50 under setting [1] was above 10 µM. As to `COc1ccc(S(=O)(=O)N2CCC(c3nn4ncnc4cc3C)CC2)c(C)c1` [Compound 186, 6-(1-((4-methoxy-2-methylphenyl)sulfonyl)piperidin-4-yl)-7-methyl-[1,2,4]triazolo[1,5-b]pyridazine], under setting [1], the IC50 was above 10 µM.

On to `Cc1cc2ncnn2nc1C1CCN(S(=O)(=O)c2cnn3c2CCC3)CC1` [Compound 187, 6-(1-((5,6-dihydro-4H-pyrrolo[1,2-b]pyrazol-3-yl)sulfonyl)piperidin-4-yl)-7-methyl-[1,2,4]triazolo[1,5-b]pyridazine], for which the concentration for half-maximal inhibition (IC50) under setting [1] was determined as 0.023 µM. As to `Cc1cc2ncnn2cc1C1CCN(S(=O)(=O)c2ccc3ncn(C)c3c2)CC1` [Compound 188, 7-methyl-6-(1-((1-methyl-1H-benzo[d]imidazol-6-yl)sulfonyl)piperidin-4-yl)-[1,2,4]triazolo[1,5-a]pyridine], the IC50 under setting [1] turned out to be 0.105 µM. Regarding `Cc1cc2ncnn2cc1C1CCN(S(=O)(=O)c2ccc3c(c2)ncn3C)CC1` [Compound 189, 7-methyl-6-(1-((1-methyl-1H-benzo[d]imidazol-5-yl)sulfonyl)piperidin-4-yl)-[1,2,4]triazolo[1,5-a]pyridine], the IC50 under setting [1] is above 10 µM. On to `Cc1cc2ncnn2cc1C1=CC2CCC(C1)N2S(=O)(=O)c1ccc2c(c1)CCO2` (stereo not drawn) [Compound 190, 6-(8-((2,3-dihydrobenzofuran-5-yl)sulfonyl)-8-azabicyclo[3.2.1]oct-2-en-3-yl)-7-methyl-[1,2,4]triazolo[1,5-a]pyridine], for which the IC50 is above 10 µM. Take `Cc1cc2ncnn2cc1C1CC2CCC(C1)N2S(=O)(=O)c1cnn(C)c1C` (stereo not drawn) [Compound 191, 6-(8-((1,5-dimethyl-1H-pyrazol-4-yl)sulfonyl)-8-azabicyclo[3.2.1]octan-3-yl)-7-methyl-[1,2,4]triazolo[1,5-a]pyridine]: the IC50 is above 10 µM. The same measure, in the same setting: in the case of `Cc1cc2ncnn2cc1C1CC2CCC(C1)N2S(=O)(=O)c1cnn2c1CCC2` (stereo not drawn) [Compound 193, 6-(8-((5,6-dihydro-4H-pyrrolo[1,2-b]pyrazol-3-yl)sulfonyl)-8-azabicyclo[3.2.1]octan-3-yl)-7-methyl-[1,2,4]triazolo[1,5-a]pyridine] it was 1.6 µM. In the case of `CCc1cc2ncnn2cc1C1=CCN(S(=O)(=O)c2cnn(C)c2C)CC1` [Compound 194, 6-(1-((1,5-dimethyl-1H-pyrazol-4-yl)sulfonyl)-1,2,3,6-tetrahydropyridin-4-yl)-7-ethyl-[1,2,4]triazolo[1,5-a]pyridine], under setting [1], the IC50 was 0.055 µM. Still for that read-out and setting: for `O=S(=O)(c1cnn2c1CCC2)N1CC=C(c2cc3ncnn3cc2Cl)CC1` [Compound 195, 6-chloro-7-(1-((5,6-dihydro-4H-pyrrolo[1,2-b]pyrazol-3-yl)sulfonyl)-1,2,3,6-tetrahydropyridin-4-yl)-[1,2,4]triazolo[1,5-a]pyridine] the value was 0.065 µM; for `O=S(=O)(c1cnn2c1CCC2)N1CC=C(c2cn3ncnc3cc2Cl)CC1` [Compound 196, 7-chloro-6-(1-((5,6-dihydro-4H-pyrrolo[1,2-b]pyrazol-3-yl)sulfonyl)-1,2,3,6-tetrahydropyridin-4-yl)-[1,2,4]triazolo[1,5-a]pyridine], 0.0061 µM; for `Cc1c(S(=O)(=O)N2CCC(c3ccc4ncnn4c3C)CC2)cnn1C` [Compound 198, 6-(1-((1,5-dimethyl-1H-pyrazol-4-yl)sulfonyl)piperidin-4-yl)-5-methyl-[1,2,4]triazolo[1,5-a]pyridine], above 10 µM. As for `Cc1cc(C2CCN(S(=O)(=O)c3cnn(C)c3C)CC2)cn2ncnc12` [Compound 199, 6-(1-((1,5-dimethyl-1H-pyrazol-4-yl)sulfonyl)piperidin-4-yl)-8-methyl-[1,2,4]triazolo[1,5-a]pyridine], under setting [1], the IC50 is above 10 µM. On to `Cc1nc2cc(C)c(C3CCN(S(=O)(=O)c4cnn(C)c4C)CC3)cn2n1` [Compound 200, 6-(1-((1,5-dimethyl-1H-pyrazol-4-yl)sulfonyl)piperidin-4-yl)-2,7-dimethyl-[1,2,4]triazolo[1,5-a]pyridine], for which, under setting [1], the IC50 worked out at 0.899 µM. Still for that read-out and setting: for `COc1cc2ncnn2cc1C1CCN(S(=O)(=O)c2cnn(C)c2C)CC1` [Compound 201, 6-(1-((1,5-dimethyl-1H-pyrazol-4-yl)sulfonyl)piperidin-4-yl)-7-methoxy-[1,2,4]triazolo[1,5-a]pyridine] the value was 0.765 µM; for `Cc1sc(C(N)=O)nc1C1=CCN(S(=O)(=O)c2cnn(C)c2C)CC1` [Compound 202, 4-(1-((1,5-dimethyl-1H-pyrazol-4-yl)sulfonyl)-1,2,3,6-tetrahydropyridin-4-yl)-5-methylthiazole-2-carboxamide], above 10 µM; for `Cc1sc(C(N)=O)nc1C1=CCN(S(=O)(=O)c2ccc3c(c2)CCO3)CC1` [Compound 203, 4-(1-((2,3-dihydrobenzofuran-5-yl)sulfonyl)-1,2,3,6-tetrahydropyridin-4-yl)-5-methylthiazole-2-carboxamide], above 10 µM.
